Data reported in patent publication US4791215A, “Derivatives of glutamic acid and aspartic acid” (priority 1984, dated 1988).

Assays:
[1] = system: activity of analgesic drugs; experiment: Hot-plate test, potentiation of analgesic drugs (Experiment 2); assay type: in vivo, rats
Method: Experiment No. 2: Hot-plate test
The method is that described by Eddy et al. (J. Pharmac. Exp. Ther. 107, 385 (1953)).
Groups of five male rats having a weight of about 150 g, and which have not fasted, are used.
The animals are placed on a metal plate on the bottom of a transparent cylinder, which is heated to 55°±1° C. by an azeotropic boiling mixture (acetone-ethyl formate 1:1).
The reaction time is defined as the interval which passes between the moment at which the animal is placed on the hot-plate and the moment at which it either licks its feet or tries to jump out of the cylinder. The control reaction time is measured 10 and 5 minutes before administration of the drugs and 10, 20, 30, 45, 60 and 90 minutes afterwards. The animals are left on the plate for a maximum period of 30 seconds.
The response to the administration of the product is considered positive if at least a doubling of the normal reaction time is seen. The results obtained are given in Tables 2a and 2b which record the groups treated, the doses administered and the stay times on the plate expressed as the number of positive responses over the number treated.

morphine analgesia = experiment: Increase in analgesia of morphine, Tail Flick Test (Experiment 1); assay type: in vivo, rats; conditions: for percentage variation of latency of pain sensation / M (10-90) ± SE, mean percentage variation of latency: compound 10 mg/kg i.p. + morphine 2 mg/kg; for M (10-90) ± SE, mean percentage variation of latency: mean 10-90 min; for Power ratio with respect to morphine alone: rat, in vivo
Method: Experiment No: 1 Increase in analgesia of analgesic-narcotic drugs in rats by the Tail Flick Test
The method is that described by Harris et al. (J. Pharmacol. Exp. Ther. 143 (1964) 141-148).
Male rats are used having a weight of about 150-200 g which have not fasted. A point on the tail is chosen and irradiated by a heat source (75° C.) and the time (in seconds) for which the animal remains without moving its tail is measured.
A maximum period of time of 8 seconds under the heat source is chosen, after which the animal is, in any case, removed to avoid tissue damage. The measurement is effected before (controls) and after treatment with the drugs.
The percentage variation is calculated for each individual animal by the following formula: [formula] The measurements were carried out 10, 20, 30, 45, 60 and 90 minutes after treatment with the analgesics.

[2] = system: CCK-8 induced contraction of guinea pig gall bladder; experiment: Anti-CCK activity on gall bladder strips in vitro; conditions: CCK-8 10 ng/ml
Method: ANTI-CCK ACTIVITY ON GUINEA PIG GALL BALDDERS IN VITRO
A longitudinal strip of guinea pig gall bladder was placed in a bath of isolated members in the presence of Krebs at a temperature of 32° C. with continuous oxygenation with an oxygen-CO2 mixture (95-5V/V).
The isometric contractions were detected by means of a force transducer and recorded.
The gall bladder was made to contract with the use of a 10 ng/ml concentration of CCK-8; the antagonistic activity of the compounds of the invention on the contracting effect of the CCK was determined with the use of different concentrations and the ED 50 value, that is the concentration in μg/ml of a compound which could antagonise 50% of the contracting effect of the CCK, was determined.

Row | Compound | percentage variation of latency of pain sensation (morphine analgesia; 10') | percentage variation of latency of pain sensation (morphine analgesia; 20') | percentage variation of latency of pain sensation (morphine analgesia; 30') | percentage variation of latency of pain sensation (morphine analgesia; 45') | percentage variation of latency of pain sensation (morphine analgesia; 60') | percentage variation of latency of pain sensation (morphine analgesia; 90') | M (10-90) ± SE, mean percentage variation of latency (morphine analgesia) | Power ratio with respect to morphine alone (morphine analgesia) | ED50 (concentration antagonising 50% of contracting effect of CCK-8) [2] | further results
1 | CC(=O)Oc1ccccc1C(=O)O [Acetyl Salicylic Acid, reference compound] |  |  |  |  |  |  |  |  |  | TOTAL positives ([1]; acetyl salicylic acid 100 mg/kg i.p. alone): 8 x/30; positive responses over number treated ([1]; acetyl salicylic acid 100 mg/kg i.p. alone, 10'): 1/5; positive responses over number treated ([1]; acetyl salicylic acid 100 mg/kg i.p. alone, 20'): 2/5; positive responses over number treated ([1]; acetyl salicylic acid 100 mg/kg i.p. alone, 30'): 2/5; positive responses over number treated ([1]; acetyl salicylic acid 100 mg/kg i.p. alone, 45'): 2/5; positive responses over number treated ([1]; acetyl salicylic acid 100 mg/kg i.p. alone, 60'): 0/5; positive responses over number treated ([1]; acetyl salicylic acid 100 mg/kg i.p. alone, 90'): 1/5
2 | CCCN(CCC)C(=O)C(CCC(=O)O)NC(=O)c1ccccc1Cl (centres unmarked) [Compound C-1] | 65.3 ± 18.0% | 67.2% | 66.3 ± 14.0% | 82.7 ± 11.0% | 68.8 ± 17.0% | 59.3 ± 25.0% | 68.2% | 2.29 | > 200 µg/mL | 
3 | CCCN(CCC)C(=O)C(CCC(=O)O)NC(=O)c1cccc(Cl)c1 (centres unmarked) [Compound C-2] | 27.8 ± 13.0% | 43.8 ± 25.0% | 67.5 ± 20.0% | 64.2% | 74.4 ± 16.0% | 57.3 ± 19.0% | 55.8 ± 17.0% | 1.87 | > 200 µg/mL | 
4 | CCCN(CCC)C(=O)C(CCC(=O)O)NC(=O)c1ccc(Cl)cc1 (centres unmarked) [Compound C-3] | 44.4% | 83.7 ± 16.3% | 77.8 ± 17.1% | 46.4 ± 24.5% | 73.6 ± 17.7% | 45.8 ± 22.8% | 61.9 ± 18.2% | 2.10 | 34.4 µg/mL | 
5 | CCCN(CCC)C(=O)C(CCC(=O)O)NC(=O)c1ccc(Cl)c(Cl)c1 (centres unmarked) [Compound C-5] | 34.5 ± 17.4% | 21.4 ± 16.0% | 59.5 ± 21.1% | 84.7% | 63.9 ± 18.5% | 40.1 ± 23.9% | 50.7 ± 23.0% | 1.70 | 4.2 µg/mL | 
6 | CCCCCCN(CCCCCC)C(=O)C(CCC(=O)O)NC(=O)c1ccc(Cl)c(Cl)c1 (centres unmarked) [Compound C-8] | 67.4 ± 20.5% | 74.1 ± 15.8% | 80.0 ± 12.9% | 85.9 ± 14.1% | 87.1% | 60.4 ± 17.3% | 75.8 ± 10.6% | 2.54 | 0.93 µg/mL | 
7 | CCCCN(CCCC)C(=O)C(CCC(=O)O)NC(=O)c1cc(Cl)cc(Cl)c1 (centres unmarked) [Compound C-9] | 67.6 ± 11.0% | 65.8% | 71.9 ± 17.5% | 59.1 ± 20.0% | 52.1 ± 22.0% | 40.4 ± 18.0% | 59.5 ± 11.6% | 2.00 | 7.40 µg/mL | 
8 | CCCCN(CCCC)C(=O)C(CCC(=O)O)NC(=O)c1ccc(Cl)cc1Cl (centres unmarked) [Compound C-10] | 56.9 ± 25.8% | 66.4 ± 21.4% | 72.9% | 70.1 ± 18.5% | 66.2 ± 21.3% | 63.2 ± 23.4% | 66.0 ± 5.6% | 2.21 | 43.7 µg/mL | 
9 | CCCCN(CCCC)C(=O)C(CCC(=O)O)NC(=O)c1cc(Cl)c(Cl)c(Cl)c1 (centres unmarked) [Compound C-11] | 25.2 ± 4.0% | 37.6 ± 16.0% | 50.9 ± 11.0% | 54.4 ± 9.0% | 35.8% | 18.7 ± 10.0% | 37.1 ± 14.0% | 1.24 | 0.85 µg/mL | 
10 | CCC(=O)C(CC(C)N(C)C)(c1ccccc1)c1ccccc1 (centres unmarked) [Methadone, reference compound] |  |  |  |  |  |  |  |  |  | TOTAL positives ([1]; methadone 1 mg/kg i.p. alone): 8 X/30; positive responses over number treated ([1]; methadone 1 mg/kg i.p. alone, 10'): 1/5; positive responses over number treated ([1]; methadone 1 mg/kg i.p. alone, 20'): 2/5; positive responses over number treated ([1]; methadone 1 mg/kg i.p. alone, 30'): 1/5; positive responses over number treated ([1]; methadone 1 mg/kg i.p. alone, 45'): 2/5; positive responses over number treated ([1]; methadone 1 mg/kg i.p. alone, 60'): 1/5; positive responses over number treated ([1]; methadone 1 mg/kg i.p. alone, 90'): 1/5
11 | CCCCC1C(=O)N(c2ccccc2)N(c2ccc(O)cc2)C1=O (centres unmarked) [Oxyphenylbutazone, reference compound] |  |  |  |  |  |  |  |  |  | TOTAL positives ([1]; oxyphenylbutazone 50 mg/kg i.p. alone): 7 x/30; positive responses over number treated ([1]; oxyphenylbutazone 50 mg/kg i.p. alone, 10'): 2/5; positive responses over number treated ([1]; oxyphenylbutazone 50 mg/kg i.p. alone, 20'): 1/5; positive responses over number treated ([1]; oxyphenylbutazone 50 mg/kg i.p. alone, 30'): 2/5; positive responses over number treated ([1]; oxyphenylbutazone 50 mg/kg i.p. alone, 45'): 2/5; positive responses over number treated ([1]; oxyphenylbutazone 50 mg/kg i.p. alone, 60'): 0/5; positive responses over number treated ([1]; oxyphenylbutazone 50 mg/kg i.p. alone, 90'): 0/5
12 | Propoxyphene [reference compound] |  |  |  |  |  |  |  |  |  | TOTAL positives ([1]; propoxyphene 10 mg/kg i.p. alone): 8 X/30; positive responses over number treated ([1]; propoxyphene 10 mg/kg i.p. alone, 10'): 1/5; positive responses over number treated ([1]; propoxyphene 10 mg/kg i.p. alone, 20'): 2/5; positive responses over number treated ([1]; propoxyphene 10 mg/kg i.p. alone, 30'): 2/5; positive responses over number treated ([1]; propoxyphene 10 mg/kg i.p. alone, 45'): 2/5; positive responses over number treated ([1]; propoxyphene 10 mg/kg i.p. alone, 60'): 1/5; positive responses over number treated ([1]; propoxyphene 10 mg/kg i.p. alone, 90'): 0/5; TOTAL positives ([1]; propoxyphene 15 mg/kg i.p. alone): 12 x/30; positive responses over number treated ([1]; propoxyphene 15 mg/kg i.p. alone, 10'): 2/5; positive responses over number treated ([1]; propoxyphene 15 mg/kg i.p. alone, 20'): 2/5; positive responses over number treated ([1]; propoxyphene 15 mg/kg i.p. alone, 30'): 3/5; positive responses over number treated ([1]; propoxyphene 15 mg/kg i.p. alone, 45'): 3/5; positive responses over number treated ([1]; propoxyphene 15 mg/kg i.p. alone, 60'): 1/5; positive responses over number treated ([1]; propoxyphene 15 mg/kg i.p. alone, 90'): 3/5
